Assay results as given in US8022056B2, “Compositions and methods for the treatment of cancer” (Tautatis, Inc, priority 2006, dated 2011).
Read-outs that look alike come from different tables or passages of the source.

Assays:
[1] = system: U373 glioblastoma cell line; assay: Long-term growth inhibition, crystal violet staining; assay type: cell-based, human; conditions: 10 nM, over a week
Procedure: For proliferation assays tumor cell suspensions (100 μl/well) were seeded into 96-well flat bottomed microtitration plates at a density of ca. 15 cells/microscopic field (magnification 320×). After 2-3 days the culture medium was removed by suction and replaced by fresh medium (200 μl/well) containing varying concentrations of the compound of the formula 1 or vehicle (0.5% DMSO). Compound 1 was added as […] concentrated feed solutions. On every plate 16 wells served as controls and 16 wells were used per concentration of 1. After various times of incubation the cells were fixed with glutardialdehyde and stored in a refrigerator. At the end of the assay all plates were processed simultaneously (staining with 0.02% aqueous crystal violet solution (100 μl/well). Excess dye was removed by rinsing the trays with water for 20 min. The stain bound by the cells was redissolved in 70% ethanol (180 μl/well) while shaking the microplates for about 3 hours. Absorbance (proportional to cell mass) was measured at 578 nm using a BIOTEK 309 Autoreader. The results (mean values±standard deviation) were plotted as growth curves.
The EGF-receptor independent U373 Human Glioblastoma cell line (obtained from ATCC, Rockville, USA) was cultured as above. Treatment with the compound of the formula 1 and analysis of growth inhibition was performed analogous to Example 3.

[2] = system: NCI-60 panel cell lines; assay: NCI-60 panel growth inhibition screen; assay type: cell-based; conditions: for GI50: nominal concentration
Excerpt: FIGS. 7a-h show the inhibitory potencies of compound 1 in the cell lines of the NCI panel from various cancers. The growth of cells treated with various concentrations of compound 1 was expressed in reference to untreated controls (100%) after 48 hr exposure. Negative growth values represent cell death. Actual concentrations of compound 1 are about two times lower than nominal due to well binding in the 96-well plate format.
FIG. 8 represents the GI50 (50% growth inhibition, cross-hatch bars) and TGI (total growth inhibition, solid bars) values of all cells in the NCI-60 panel in relation to the attainable free mouse plasma concentration of orally applied compound 1, corrected for the reduction in actual inhibitor concentration by well binding. The oncogenic mutation spectrum of the cell lines is presented at the bottom.
To further exemplify the breadth of anti-tumor activity of compounds 1-4 the NCI-60 panel was screened with compound 1. The spectrum of verified oncogenic driver mutations in these cell lines was recently elucidated to encompass mutations in raf, ras, CDKN2A (cdk inhibitor), p53, PI3K, PTEN, EGFR, APC, FLT3, RB1 among others. Cell lines generally have several of these mutations representative of stage III and IV cancers [Ikediobi et al., Mol. Cancer. Ther. 5, 2606-2612 (2006)]. […] The average concentration for total growth inhibition (TGI) was thus at 200 nM, i.e. about 10-times GI50. At sustained free plasma concentrations in vivo of about 200 nM, that can be achieved with practical forms of oral dosing and in the absence of special formulations, all cell lines would be inhibited by more than 50% without exception, and more than half would show no growth at all or would be killed (FIG. 8).

[3] = Pharmacokinetics in mouse plasma and brain after oral dosing; assay type: in vivo
Procedure: Standard curves were established for the compound 1 reextracted from serum samples and brain homogenates, using the related compound 2 as internal standard. 200 μl serum samples prepared from mouse or human blood, and homogenates of 0.2 g mouse brain tissue in 0.3 ml saturated NaCl solution, were spiked with a range of concentrations of compound 1 at 10 nM, 30 nM, 100 nM, 300 nM, 1 μM, 3 μM in a mix with 500 nM of compound 2 as internal standard in DMSO (final DMSO not exceeding 2%). Serum and homogenate samples were mixed with 100 μl conc. Ammonia, and 200 μl sat'd NaCl solution was added to the serum samples. […] were reextracted twice with 2 ml ethylacetate each by vigorous vortexing for 1 min. Combined organic extracts were evaporated in a SpeedVac, and residues were taken up in 300 μl of 40% water/60% methanol (0.1% formic acid). Samples were analyzed by reversed phase HPLC on a […] Zorbox 300SB-C8 2.1×150 mm column at 45° C. […]
Mice were dosed at 12.5 mg/kg in a vehicle of 50 mM (−)-lactic acid in 50% PEG400, and sacrificed by cardiac puncture after various time intervals. […] Reextraction was performed, and ratios of analyte 1 and internal standard 2 were determined as described above. The concentrations of compound 1 in the serum and brain samples was calculated from the standard curve.

## CNC(=O)[C@@]1(N)C[C@H]2O[C@]1(C)n1c3ccccc3c3c4c(c5c6ccccc6n2c5c31)C(=O)NC4 [Compound 1]
[1]
  growth arrest of U373 cells: almost completely effective
[2]; 48 hr exposure
  average concentration for total growth inhibition (TGI): 200 nM
[2]; HT29, highest exposures
  cell kill of HT29 cell line in vitro: cannot be killed
[2]; lung, colon, brain, skin, ovarian, kidney, prostate, breast cancer lines
  anti-proliferative activity across panel: Significant anti-proliferative activity was seen in all cell lines
[2]; 48 hr exposure, read-out: GI50 potency range across cell lines
  GI50: ≤ 150 nM
[2]; 48 hr exposure, read-out: average 50% growth inhibition (GI50) across all cell lines
  GI50: 32 nM
[3]; in vivo, practical forms of oral dosing
  maximal free plasma concentration sustained over prolonged periods: about 200 nM
[3]; mouse plasma and brain, oral dosing
  penetration of the CNS: good penetration of the CNS
